Test results: patent US7696174B2, “Short bio-active peptides for cellular and immunological modulation” (Helix Biomedix, Inc., priority 2007, dated 2010)
Entries after “also recorded” stand apart in the source; their conditions may differ. Where two headings read alike, the source gives them in different places.

Tests used:
Assay type in all cases: cell-based
[1] = tested on: PAM 212 murine epidermal keratinocyte; assay: Cell proliferation assay, PAM 212 murine epidermal keratinocytes; details: for cell proliferation as a percent of control cell proliferation: control = cells treated with PBS only; for cell proliferation activity (in words): epidermal keratinocytes
Method: To examine this question, an overlapping set of peptide fragments of HB-107 was generated using standard solid phase peptide chemistry. These peptides were then assayed for cell proliferation activity at concentrations of 0.22, 2.15, 21.5 and 46.4 μg/mL.
The cell proliferation assays proceeded from the following experimental protocol:
Cell Proliferation Assay Using a Mouse Keratinocyte Cell Line.
OBJECTIVE: To determine the anti-proliferative or cytotoxic potential of a test article when applied to epidermal keratinocytes in culture.
TEST SYSTEM: Either the murine keratinocyte cell line PAM212 or primary Normal Human Epidermal Keratinocytes (NHEK, from Clonetics) are preferred models, although other cells may be used.
Keratinocytes are examined microscopically daily. As the culture becomes 50-75% confluent, the media in the plate is aspirated and 0.25% trypsin/EDTA is added (0.05% trypsin for human cells). When the cells become rounded, the trypsin is neutralized by addition of an equal volume of DMEM or KBM supplemented with approximately 10% bovine serum or by using trypsin neutralizing solution (TNS, from Clonetics). Cells are then centrifuged and the pellet is resuspended in 1 ml of DMEM-1 or KBM. A hemacytometer is used to count the cell suspension and the total number of cells/mL is adjusted to 1.5-2.5×10^4 cells/mL with DMEM-1 or KBM. Cells are then plated in 96-well plates at a concentration of 3.0-5.0×10^3 cells/well by adding 200 μL of the cell suspension to each well. Typically, the central 60 wells are used and the outer wells are filled with DMEM or PBS to minimize evaporation effects.
A stock solution of the test article is prepared using DMEM-1 or KBM, and all other dilutions are henceforth prepared from this solution. Typically, each dilution is filtered through an 0.2-μm filter before application to the cell culture. A 1.0% (w/v or v/v) solution or suspension is prepared, and 10-fold or 3-fold serial dilutions are made in culture medium.
The cells are examined 18-24 hours after plating to ensure cell attachment and division, and then 100 μL of the media is aspirated, leaving behind 100 μL in each well. Then 100 μL of a 2× concentration of each test article dilution is added to the replicate wells. For the negative control, 100 μL of the vehicle media (DMEM-1 or KBM) is added to the control wells. The microplate is then incubated at 37 degrees C. and 5.0% CO2 for 48-72 hours after dosing, and cells are allowed to proliferate undisturbed. Following this 48-72 hour exposure, all media is aspirated and proliferation is assessed by one of the below methods.
Option A: neutral red uptake. After exposure and aspiration of media, 200 μL of neutral red media is immediately added to each well. The microplate is returned to the incubator for an additional three hours. Following this dye uptake period, the microplate is removed from the incubator and gently inverted, and the neutral red media is decanted into a collection pan. The cells are then fixed with fixing solution for approximately one minute. The fixing solution is decanted off, and the microplate is washed gently three times with washing solution. The washing solution is decanted, and 200 μL of lysing solution is added. After at least 15 minutes, the contents of each well are re-pipetted to ensure even color distribution in each well, and an aliquot is read on the spectrophotometer as detailed below.
Option B: MTT conversion assay. After exposure and aspiration of media, 200 μL of MTT assay media is immediately added to each well. […] The microplate is returned to the incubator for an additional three hours. Following this dye uptake period, the microplate is removed from the incubator and gently inverted, and the MTT media is decanted into a collection pan. The cells are then washed gently three times with washing solution. The washing solution is decanted, and 200 μL of lysing solution is added. […]

[2] = tested on: human epidermal keratinocyte; assay: Keratinocyte cell migration assay (tissue culture scratch test); details: for cell migration activity (in words): scratch test
Description: Cell proliferation alone is not sufficient to aid in wound healing. Upon sustaining an injury, cells bordering the wound proliferate; the migration of such newly formed cells to close the injury (or chronic lesion of older, dysfunctional tissue) is of equal importance. To address this issue, HB-107 and peptide fragments thereof were examined using a keratinocyte cell migration assay based on a simple tissue culture scratch test. […] The protocol for this assay is standard and has been described by Shanley et al. (2004, Invest. Ophthalmol. Vis. Sci. 45:1088-1094), the article of which is herein incorporated by reference in its entirety.

[3] = tested on: IL6 expression in epithelial cells; assay: Repression of IL6 expression in resting epithelial cells; details: for % Change in IL6 expression / Change in IL6 versus PBS control: 20 μg/mL peptide
Description: The protocol for this assay is standard and described by Murakami et al. (2004, J. Immunol. 172:[…]), the article of which is incorporated herein by reference in its entirety.

[4] = 24 hr after addition of 20 μg/mL peptide
[5] = 48 hr after addition of 20 μg/mL peptide

Substance	cell proliferation as a percent of control cell proliferation ([1]; 0.22 μg/mL peptide)	cell proliferation as a percent of control cell proliferation ([1]; 2.15 μg/mL peptide)	cell proliferation as a percent of control cell proliferation ([1]; 21.5 μg/mL peptide)	cell proliferation as a percent of control cell proliferation ([1]; 46.4 μg/mL peptide)	cell proliferation activity (in words) [1]	further results
EKMGRNIRN (listed as Hyalophora cecropia) [HB-1059, fragment of HB-107]	95%	128%	162%	186%		cell proliferation activity (in words) ([1]; listed as SEQ ID NO:2): strongest proliferative activity; also recorded: can induce cell proliferation
GRNIRN (listed as Hyalophora cecropia) [HB-1062, fragment of HB-107]						percent closure of the scratch compared to initial width ([2]; 6 hr exposure to peptide): 0%; percent closure of the scratch compared to initial width ([2]; 10 hr exposure to peptide): 24%; cell migration activity (in words) [2]: no migratory activity
KEKVFLKIE (listed as Hyalophora cecropia) [HB-1076, fragment of HB-107]						IL6 reduction / anti-inflammatory activity in resting cells (in words) [3]: decrease the level of IL6 expression to the same degree as the HB-107 parent peptide; amount of IL6, Average [3, 4]: 266.7 pg/mL; amount of IL6, Well 1 [3, 4]: 278.32 pg/mL; amount of IL6, Well 2 [3, 4]: 255.08 pg/mL; % Change in IL6 expression ([3]; 24 hr): −17.60%; Change in IL6 versus PBS control ([3]; 24 hr): −56.8; amount of IL6, Average [3, 5]: 727.59 pg/mL; amount of IL6, Well 1 [3, 5]: 726.73 pg/mL; amount of IL6, Well 2 [3, 5]: 728.45 pg/mL; % Change in IL6 expression ([3]; 48 hr): −25.40%; Change in IL6 versus PBS control ([3]; 48 hr): −247.445; IL6 reduction / anti-inflammatory activity in resting cells (in words) ([3]; listed as SEQ ID NO:8): having anti-inflammatory activity
KIEKMG (listed as Hyalophora cecropia) [HB-1072, fragment of HB-107]	98%	107%	185%	237%	significant increases in cell proliferation compared to induction by HB-107; also recorded: significant increase in the proliferation of epidermal keratinocytes at low concentrations	percent closure of the scratch compared to initial width ([2]; 6 hr exposure to peptide): 55%; percent closure of the scratch compared to initial width ([2]; 10 hr exposure to peptide): 77%; cell migration activity (in words) [2]: just as capable as HB-107 in inducing cell migration; also recorded: capable of increasing the migration of cells in a manner similar to that of the parent HB-107 peptide; cell migration activity (in words) ([2]; listed as SEQ ID NO:6): can induce cell proliferation and migration; cell proliferation activity (in words) ([1]; listed as 6): strongest proliferative activity; cell proliferation activity (in words) ([1]; listed as SEQ ID NO:6): can induce cell proliferation
KIEKMGRNIRN (listed as Hyalophora cecropia) [HB-1057, fragment of HB-107]	121%	118%	171%	167%		cell proliferation activity (in words) ([1]; listed as 9): strongest proliferative activity; cell proliferation activity (in words) ([1]; listed as SEQ ID NO:9): can induce cell proliferation
KMGRNIRN (listed as Hyalophora cecropia) [HB-1060, fragment of HB-107]	57%	52%	90%	83%		
LKIEKMGRNIRN (listed as Hyalophora cecropia) [HB-1056, fragment of HB-107]	48%	39%	64%	97%		
MGRNIRN (listed as Hyalophora cecropia) [HB-1061, fragment of HB-107]	122%	156%	163%	241%	significant increases in cell proliferation compared to induction by HB-107; also recorded: significant increase in the proliferation of epidermal keratinocytes at low concentrations	percent closure of the scratch compared to initial width ([2]; 6 hr exposure to peptide): 44%; percent closure of the scratch compared to initial width ([2]; 10 hr exposure to peptide): 67%; cell migration activity (in words) [2]: just as capable as HB-107 in inducing cell migration; also recorded: capable of increasing the migration of cells in a manner similar to that of the parent HB-107 peptide; cell migration activity (in words) ([2]; listed as SEQ ID NO:3): can induce cell proliferation and migration; cell proliferation activity (in words) ([1]; listed as 3): strongest proliferative activity; cell proliferation activity (in words) ([1]; listed as SEQ ID NO:3): can induce cell proliferation
MPKEKVFLKIEKMG (listed as Hyalophora cecropia) [HB-912, fragment of HB-107]	100%	84%	125%	137%	can induce cell proliferation	
VFLKIEK (listed as Hyalophora cecropia) [HB-1074, fragment of HB-107]	97%	93%	120%	149%	can induce cell proliferation	
VFLKIEKMG (listed as Hyalophora cecropia) [HB-1071, fragment of HB-107]	106%	127%	188%	155%		cell proliferation activity (in words) ([1]; listed as 5): strongest proliferative activity; cell proliferation activity (in words) ([1]; listed as SEQ ID NO:5): can induce cell proliferation
